# Like-named read-outs stand apart in the source and are kept apart here.
# How the values were obtained:
# [1] = tested on: physical performance of athletes; details: vegetable oil bases, oral ingestion; U.S. Pat. No. 3,031,376; cited from earlier work
# [2] = tested on: LP-BM 5 MuLV ecotropic virus; assay: Percent virus inhibition / plaque count of LP-BM 5 MuLV ecotropic virus using XC indicator cells; type: cell-based; details: for inhibition at 0.5 µg/mL / inhibition at 5 µg/mL / inhibition at 50 µg/mL / inhibition at 500 µg/mL: read-out: % decrease
# Protocol: A composition a composition consisting essentially of aliphatic alcohols having 22 carbons in the aliphatic chain in micelle suspension, […], was introduced into cultures of LP-BM 5 MuLV ecotropic virus, […], and the percent of virus inhibition, as compared with controls continuing only PBS buffer, indicated by cell-fusion activity and cell plaque count, using XC indicator cells (Virology 42:1136, 1970), was determined.
# The effect of the C-20 to C-26 alcohols of this invention on ecotropic virus was further confirmed and compared with AZT.
# [3] = tested on: collagen-induced arthritis; assay: Treatment of collagen-induced arthritis (CIA) in DBA/1 mice; type: in vivo
# Protocol: DBA/1 mice were injected intradermally at the base of the tail on days zero and 28 with 20 μg chick type II collagen emulsified in CFA. The mammals were followed for clinical signs of arthritis, i.e., joint erythema, edema, and loss of function. The data illustrated in FIG. 1 were derived from a series of 5 independently conducted experiments which show the clinical course of collagen-induced arthritis (CIA) in DBA/1 mice immunized with chick type II collagen/CFA. Male DBA/1 mice were immunized with 20 μg chick type Ii collagen emulsified in CFA on days zero and 28. The mammals were followed for a total of 70 days for clinical signs of arthritis, joint erythema, edema, and loss of function. That data represent the means and standard deviations of incidence of arthritis and spontaneous remission from 5 separate experiments using 10-15 mice per experiment. p As noted by others, Stuart, J. M., Townes, A. S., and Knag, A. H., Ann. Rev. Immunol. […] Histologic analysis (not shown) confirmed extensive mononuclear infiltration and pannus formation as reported by others using similar techniques, Wooley, P. H., Luthra, H. S., Stuart, J. M., and David, C. S., J. Exp. Med. 154:688-700, 1981. […] We used a four point scoring system where zero is a normal limb, 1 being marginal swelling and erythema, 2 being progressively more severe swelling, erythema, and lack of flexibility, and 3 being severe erythema, edema, and often complete fusion of the bone elements and lack of flexibility. […] S., J. Exp. Med. 154:688-700, 1981.
# Male DBA/1 (obtained from Jackson Laboratories, Bar Harbor, Me.) were used at 8 to 12 weeks of age. The mice were immunized intradermally at the base of the tail on day zero and again on day 28 with 20 μg chick type II collagen, prepared exactly as described by others, Trentham, D. E., Townes, A. S., and Kang, A. H., J. Exp. Med. 146:857-858, 1977, or obtained commercially (Genzyme, Boston, Ma.), emulsified in complete Freund's adjuvant (Difco, Ann Arbor, Mi.). The mammals were examined visually twice weekly for arthritic signs, swollen and erythremic limbs. Induction of CIA-associated histopathology was assessed by evaluation of paraffin sections of normal limbs, and limbs obtained from mammals with various stages of the disease essentially as described by others, Wooley, P. H., Luthra, H. S., Stuart, J. M., and David, C. S., J. Exp. Med 154:688-700, 1981.
# n-Docosanol was suspended in Pluronic F68® (Trademark of BASF Corp; chemical composition, poloxamer 188, a non-ionic detergent block co-polymer of propylene oxide and ethylene oxide) as follows: Pluronic F-68 (mw 8,400; BASF Corp., Parsippany, N.J.) was diluted to 10 mg/ml in warm (37° C.) Dulbecco's high glucose modified Eagle's medium (DMEM; Whittaker Bioproducts, Walkersville, Md.), and the solution then heated to 50° C. n-Docosanol was added at 10 mg/ml to the Pluronic F-68 in DMEM and the solution further heated to 86° C. wile sonicating (Branson 450 sonifier) for 21 minutes at an initial output of 65 watts. The resulting stock suspension contained 10 mg/ml of n-docosanol particles of 0.03-0.3 microns. The corresponding control solution was prepared identically except the n-docosanol was excluded.
# Adult DBA/1 mice were immunized with collagen/CFA as described in […], and on day 44 after primary immunization the mammals were given a clinical score and placed in one of three groups. […] One group was treated once daily with 5 mg of n-docosanol as indicated in FIG. 3 (0.5 ml of 10 mg/ml n-docosanol in 10 mg/ml Pluronic F-68), half of which was given intravenously and the other half given subcutaneously. Another group was treated with 5 mg Pluronic F-68 control in a similar manner. The last group was left untreated.
# The effects of n-docosanol on CIA in DBA/1 Mice are depicted in FIG. 3. Adult DBA/1 male mice were immunized with collagen/CFA as described in the legend to FIG. 2. […]
# growth of plants = details: Ries et al. and others; cited from earlier work
# inflammatory disorders = details: Clark, U.S. Pat. No. 4,670,471; cited from earlier work
structure (smiles),measurement,setting,value
CCCCCCCCCCCCCCCCCCCCCCCCCCO [hexacosanol],physical performance of athletes,[1],improved physical performance of athletes
"CCCCCCCCCCCCCCCCCCCCCCO [C-22 Alcohol, n-docosanol]",Plaques/culture,"[2]; 0.5 μg/ml, 10^2 input",110 ± 2 Plaques/culture
same,inhibition at 0.5 µg/mL,"[2]; 0.5 μg/ml, 10^2 input",19%
same,Plaques/culture,"[2]; 0.5 μg/ml, 10^3 input",703 ± 88 Plaques/culture
same,inhibition at 0.5 µg/mL,"[2]; 0.5 μg/ml, 10^3 input",14%
same,Plaques/culture,"[2]; 5 μg/ml, 10^2 input",84 ± 12 Plaques/culture
same,inhibition at 5 µg/mL,"[2]; 5 μg/ml, 10^2 input",36%
same,Plaques/culture,"[2]; 5 μg/ml, 10^3 input",561 ± 50 Plaques/culture
same,inhibition at 5 µg/mL,"[2]; 5 μg/ml, 10^3 input",31%
same,Plaques/culture,"[2]; 50 μg/ml, 10^2 input",72 ± 24 Plaques/culture
same,inhibition at 50 µg/mL,"[2]; 50 μg/ml, 10^2 input",45%
same,Plaques/culture,"[2]; 50 μg/ml, 10^3 input",562 ± 11 Plaques/culture
same,inhibition at 50 µg/mL,"[2]; 50 μg/ml, 10^3 input",31%
same,Plaques/culture,"[2]; 500 μg/ml, 10^2 input",13 ± 2 Plaques/culture
same,inhibition at 500 µg/mL,"[2]; 500 μg/ml, 10^2 input",90%
same,Plaques/culture,"[2]; 500 μg/ml, 10^3 input",401 ± 5 Plaques/culture
same,inhibition at 500 µg/mL,"[2]; 500 μg/ml, 10^3 input",51%
same,inhibition at 0.06 µg/mL,"[2]; C-22 alcohol 0.06 μg/ml, 100 PFU/ml (10^2 input)",7%
same,inhibition at 0.6 µg/mL,"[2]; C-22 alcohol 0.6 μg/ml, 100 PFU/ml (10^2 input)",22%
same,inhibition at 6 µg/mL,"[2]; C-22 alcohol 6 μg/ml, 100 PFU/ml (10^2 input)",40%
same,inhibition at 60 µg/mL,"[2]; C-22 alcohol 60 μg/ml, 100 PFU/ml (10^2 input)",89%
same,mean clinical score,"[3]; 24 hours after the first treatment, vs untreated or control-treated, 5 mg once daily, half i.v., half s.c.",significant decrease in mean clinical score
same,"P value, decrease in mean clinical score vs untreated",[3]; after further regimen of 3 treatments,0.001
same,mean clinical score,[3]; after further regimen of 3 treatments (days 50-52),another significant decrease in mean clinical score
same,"P value, decrease in mean clinical score vs control-treated","[3]; after further regimen of 3 treatments, Pluronic F-68 control",0.03
same,day of first complete clinical remission,[3]; after primary immunization (3 days after initial treatment),47 days
same,clinically normal mammals,[3]; by day 55 after primary immunization,100%
same,lag of remission in untreated or control-treated groups behind n-docosanol-treated group,[3]; complete clinical remission,8 to 9 days
same,mean clinical score,"[3]; day 49, 48 hours after the last injection",a rise in mean clinical score
same,occurrence of remission from CIA,[3]; panel B of FIG. 3,hastened the occurrence of remission from CIA
CCCCCCCCCCCCCCCCCCCCCCCCCCCCCCCCO [C-32],plant growth activity,growth of plants,"do not possess such physiological activity, or at least have very much less physiological activity in plant growth"
"Cc1cn([C@H]2C[C@H](N=[N+]=[N-])[C@@H](CO)O2)c(=O)[nH]c1=O [AZT, reference compound]",Plaques/culture,"[2]; 0.5 μg/ml, 10^2 input",34 ± 3 Plaques/culture
same,inhibition at 0.5 µg/mL,"[2]; 0.5 μg/ml, 10^2 input",69%
same,Plaques/culture,"[2]; 0.5 μg/ml, 10^3 input",657 ± 24 Plaques/culture
same,inhibition at 0.5 µg/mL,"[2]; 0.5 μg/ml, 10^3 input",14%
same,Plaques/culture,"[2]; 5 μg/ml, 10^2 input",43 ± 3 Plaques/culture
same,inhibition at 5 µg/mL,"[2]; 5 μg/ml, 10^2 input",60%
same,Plaques/culture,"[2]; 5 μg/ml, 10^3 input",382 ± 59 Plaques/culture
same,inhibition at 5 µg/mL,"[2]; 5 μg/ml, 10^3 input",50%
same,Plaques/culture,"[2]; 50 μg/ml, 10^2 input",23 ± 5 Plaques/culture
same,inhibition at 50 µg/mL,"[2]; 50 μg/ml, 10^2 input",79%
same,Plaques/culture,"[2]; 50 μg/ml, 10^3 input",131 ± 10 Plaques/culture
same,inhibition at 50 µg/mL,"[2]; 50 μg/ml, 10^3 input",83%
same,Plaques/culture,"[2]; 500 μg/ml, 10^2 input",5 ± 3 Plaques/culture
same,inhibition at 500 µg/mL,"[2]; 500 μg/ml, 10^2 input",95%
same,Plaques/culture,"[2]; 500 μg/ml, 10^3 input",43 ± 6 Plaques/culture
same,inhibition at 500 µg/mL,"[2]; 500 μg/ml, 10^3 input",94%
CCCCCCCCCCCCCCCCCCCCCCCCCCCCCCO [1-triacontanol],plant growth activity,growth of plants,stimulates the growth of plants
same,physical performance of athletes,[1],improved physical performance of athletes
same,anti-inflammatory effectiveness,inflammatory disorders,the aerosol carrier destroyed the effect of triacontanol
CCCCCCCCCCCCCCCCCCCCCCCCCCCCO [octacosanol],plant growth activity,growth of plants,"do not possess such physiological activity, or at least have very much less physiological activity in plant growth"
same,physical performance of athletes,[1],improved physical performance of athletes
CCCCCCCCCCCCCCCCCCCCCCCCO [tetracosanol],physical performance of athletes,[1],improved physical performance of athletes

# — patent US5166219A, “Systemic anti-inflammatory treatment” (Lidak Pharmaceuticals, priority 1991, dated 1992)
